Results as given in patent publication US9353051B2, “Antiviral drugs for treatment or prevention of dengue infection” (Siga Technologies Inc., priority 2007, dated 2016).
Read-outs that look alike come from different tables or passages of the source.

What was measured:
[1] = system: dengue; settings: mouse model; cited from earlier work
[2] = system: dengue; settings: cited from earlier work
[3] = system: Dengue-2 (Strain New Guinea C); assay: viral yield assay against Dengue-2 in Vero cells; type: cell-based; settings: Dengue virus; for EC90: read-out: EC90 Yield Den-2
Procedure, shortened: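 Vero cells infected with dengue-2 at MOI 0.1 were treated with compound (DMSO control) at 37° C., harvested 48 h post infection and titered on Vero cells.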

[4] = system: Den-1; assay: viral yield assay against Den-1; type: cell-based; settings: Dengue virus
[5] = system: Den-3; assay: viral yield assay against Den-3; type: cell-based; settings: Dengue virus
[6] = system: Den-4; assay: viral yield assay against Den-4; type: cell-based; settings: Dengue virus
[7] = system: Modoc; assay: specificity: activity against Modoc; type: cell-based, murine flavivirus; settings: Orthoflavivirus, in Mus musculus
Experimental: (§1) Select compounds were also tested for more broad spectrum activity against other members of the Flaviviridae family including Modoc, which is a murine flavivirus, as well as Bovine Viral Diarrhea Virus (BVDV), which is a Pestivirus. Since dengue virus is able to replicate in multiple cell lines and to ensure that the activity seen in vero cells is consistent, select compounds were also tested for their effective concentration in a viral yield assay against dengue-2 in C6/36 mosquito cells.

[8] = system: Bovine Viral Diarrhea Virus (BVDV); assay: specificity: activity against BVDV; type: cell-based
Experimental: as §1

[9] = system: dengue-2 in C6/36 mosquito cells; assay: viral yield assay against dengue-2 in C6/36 mosquito cells; type: cell-based; settings: Dengue virus, dengue-2, C6/36 mosquito cells, read-out: Specificity C6/36
Experimental: as §1

[10] = Vero cells, MOI 0.1, harvested 48 hours post infection, read-out: Activity (anti-dengue 2 viral activity, EC50)
[11] = viral yield assay, Vero cells, read-out: EC50 Yield Den-2
[12] = Bovine viral diarrhea virus isolates and strains, read-out: Specificity BVDV

Question: Which protection against dengue [1] does the source give for `NC(=O)c1ncn([C@@H]2O[C@H](CO)[C@@H](O)[C@H]2O)n1` [ribavirin] here?
Answer: The protection against dengue was “did not show protection”.

Question: What about the adverse effects induced ([2]; animal models of dengue (mouse or rhesus monkey, not specified)) of the same compound?
Answer: Its adverse effects induced is “induced anemia and thrombocytosis”.

Question: What about the protection against dengue ([2]; rhesus monkey model) of the same compound?
Answer: The protection against dengue was “did not show protection”.

Question: With `CCN(CC)S(=O)(=O)c1ccc(NC(=O)Cn2cnc3ccccc3c2=O)cc1` [Compound 1, N-(4-Diethylsulfamoyl-phenyl)-2-(4-oxo-4H-quinazolin-3-yl)-acetamide] as the compound, how does the EC50 [3, 10] read?
Answer: Its EC50 is less than 1 µM.

Question: And the EC50 [3, 11]?
Answer: Its EC50 is 0.3 µM.

Question: What about the EC90 ([3]; viral yield assay, Vero cells) of the same compound?
Answer: Its EC90 is 5.2 µM.

Question: And the EC50 [4]?
Answer: The EC50 was 4.3 µM.

Question: And the EC90 [4]?
Answer: Its EC90 is 10.7 µM.

Question: And the EC50 [5]?
Answer: Its EC50 is 1 µM.

Question: What about the EC90 [5] of the same compound?
Answer: The EC90 was 8.2 µM.

Question: What about the EC50 [6] of the same compound?
Answer: Its EC50 is 1.7 µM.

Question: What about the EC90 [6] of the same compound?
Answer: The EC90 was 4.1 µM.

Question: What about the EC50 [7] of the same compound?
Answer: Its EC50 is 1.2 µM.

Question: What about the EC50 [8, 12] of the same compound?
Answer: The EC50 was greater than 50 µM.

Question: What about the EC50 [9] of the same compound?
Answer: Its EC50 is 0.3 µM.

Question: For `CCN(CC)S(=O)(=O)c1ccc(NC(=O)Cn2nnc3ccccc3c2=O)cc1` [Compound 3, N-(4-Diethylsulfamoyl-phenyl)-2-(4-oxo-4H-benzo[d][1,2,3]triazin-3-yl)-acetamide], which EC50 [3, 10] is on record?
Answer: Its EC50 is 1 to 10 µM.

Question: What about the EC50 [3, 11] of the same compound?
Answer: The EC50 was 4 µM.

Question: What about the EC90 ([3]; viral yield assay, Vero cells) of the same compound?
Answer: Its EC90 is 10 µM.

Question: And the EC50 [4]?
Answer: The EC50 was 1.3 µM.

Question: What about the EC90 [4] of the same compound?
Answer: Its EC90 is 5.1 µM.

Question: And the EC50 [5]?
Answer: Its EC50 is 1 µM.

Question: What about the EC90 [5] of the same compound?
Answer: Its EC90 is 12.1 µM.

Question: What about the EC50 [6] of the same compound?
Answer: The EC50 was 2.3 µM.

Question: What about the EC90 [6] of the same compound?
Answer: The EC90 was 10 µM.

Question: And the EC50 [7]?
Answer: Its EC50 is 3.1 µM.

Question: And the EC50 [8, 12]?
Answer: The EC50 was greater than 50 µM.

Question: Which EC50 ([3]; Vero, 48 h, read-out: Activity (anti-dengue 2 viral activity, EC50)) does the source give for `CCN(CC)S(=O)(=O)c1ccc(C)c(NC(=O)Cn2cnc3cc([N+](=O)[O-])ccc3c2=O)c1` [Compound 12, N-(5-Diethylsulfamoyl-2-methyl-phenyl)-2-(7-nitro-4-oxo-4H-quinazolin-3-yl)-acetamide] here?
Answer: Its EC50 is 1 to 10 µM.

Question: What about the EC50 [3, 11] of the same compound?
Answer: Its EC50 is 11.1 µM.

Question: And the EC90 ([3]; viral yield assay, Vero cells)?
Answer: Its EC90 is greater than 25 µM.

Question: And the EC50 [4]?
Answer: The EC50 was greater than 25 µM.

Question: What about the EC90 [4] of the same compound?
Answer: Its EC90 is greater than 25 µM.

Question: And the EC50 [5]?
Answer: Its EC50 is 2.9 µM.

Question: And the EC90 [5]?
Answer: Its EC90 is greater than 25 µM.

Question: And the EC50 [6]?
Answer: The EC50 was 5.2 µM.

Question: And the EC90 [6]?
Answer: Its EC90 is 14.6 µM.

Question: And the EC50 [7]?
Answer: The EC50 was greater than 25 µM.

Question: What about the EC50 [8, 12] of the same compound?
Answer: Its EC50 is greater than 50 µM.

Question: For `CCCC(=O)Nc1cc(S(=O)(=O)N(CC)CC)ccc1OC` [Compound 14, N-(5-Diethylsulfamoyl-2-methoxy-phenyl)-butyramide], which EC50 [3, 10] is on record?
Answer: The EC50 was 1 to 10 µM.

Question: And the EC50 [3, 11]?
Answer: Its EC50 is 3.6 µM.

Question: What about the EC90 ([3]; viral yield assay, Vero cells) of the same compound?
Answer: The EC90 was 27.5 µM.

Question: And the EC50 [4]?
Answer: The EC50 was greater than 25 µM.

Question: What about the EC90 [4] of the same compound?
Answer: Its EC90 is greater than 25 µM.

Question: What about the EC50 [5] of the same compound?
Answer: The EC50 was 4.2 µM.

Question: What about the EC90 [5] of the same compound?
Answer: Its EC90 is 14.9 µM.

Question: What about the EC50 [6] of the same compound?
Answer: The EC50 was 4.8 µM.

Question: And the EC90 [6]?
Answer: The EC90 was 11.1 µM.

Question: What about the EC50 [7] of the same compound?
Answer: Its EC50 is greater than 25 µM.

Question: What about the EC50 ([8]; Bovine viral diarrhea virus isolates and strains; read-out: Specificity BVDV) of the same compound?
Answer: The EC50 was greater than 50 µM.

Question: Which EC50 [3, 10] does the source give for `CCN(CC)S(=O)(=O)c1ccc(OC)c(NC(=O)C(C)C)c1` [Compound 2, N-(5-Diethylsulfamoyl-2-methoxy-phenyl)-isobutyramide] here?
Answer: Its EC50 is less than 1 µM.

Question: What about the EC50 [3, 11] of the same compound?
Answer: Its EC50 is 0.3 µM.

Question: And the EC90 ([3]; viral yield assay, Vero cells)?
Answer: Its EC90 is 4.1 µM.

Question: And the EC50 [4]?
Answer: Its EC50 is 7.6 µM.

Question: And the EC90 [4]?
Answer: Its EC90 is 8.9 µM.

Question: And the EC50 [5]?
Answer: Its EC50 is 5.5 µM.

Question: And the EC90 [5]?
Answer: The EC90 was 13.3 µM.

Question: What about the EC50 [6] of the same compound?
Answer: Its EC50 is 2.1 µM.

Question: And the EC90 [6]?
Answer: The EC90 was 12.5 µM.

Question: What about the EC50 [7] of the same compound?
Answer: The EC50 was 6.2 µM.

Question: And the EC50 [8, 12]?
Answer: Its EC50 is greater than 50 µM.

Question: And the EC50 [9]?
Answer: The EC50 was 0.7 µM.

Question: With `CCN(CC)S(=O)(=O)c1ccc(OC)c(NC(=O)Cn2cnc3c2c(=O)n(C)c(=O)n3C)c1` [Compound 13, N-(5-Diethylsulfamoyl-2-methoxy-phenyl)-2-(1,3-dimethyl-2,6-dioxo-1,2,3,6-tetrahydro-purin-7-yl)-acetamide] as the compound, how does the EC50 [3, 10] read?
Answer: The EC50 was 1 to 10 µM.

Question: And the EC50 [3, 11]?
Answer: The EC50 was 2.4 µM.

Question: And the EC90 ([3]; viral yield assay, Vero cells)?
Answer: The EC90 was 10.3 µM.

Question: And the EC50 [4]?
Answer: Its EC50 is 7.1 µM.

Question: What about the EC90 [4] of the same compound?
Answer: The EC90 was 8.5 µM.

Question: What about the EC50 [5] of the same compound?
Answer: The EC50 was 4.1 µM.

Question: And the EC90 [5]?
Answer: Its EC90 is 9.4 µM.

Question: And the EC50 [6]?
Answer: The EC50 was 1.9 µM.

Question: And the EC90 [6]?
Answer: The EC90 was 9.2 µM.

Question: And the EC50 [7]?
Answer: Its EC50 is greater than 25 µM.

Question: And the EC50 [8, 12]?
Answer: The EC50 was 47.7 µM.

Question: What about the EC50 [9] of the same compound?
Answer: Its EC50 is 2.1 µM.
